According to PMC7374715, “Conservation of Cdc14 phosphatase specificity in plant fungal pathogens: implications for antifungal development” (Scientific Reports, 2020):
Like-named read-outs stand apart in the source and are kept apart here. Numbered stars: 1 amine (or outer) side, 2 acyl side, 3 side chain; on linkers, the order of the positions; unused ones are H or OH. Square brackets hold non-standard residues; d marks the D form. Ends that are not written are not given here. Peptide text beside a SMILES is read from it. X1 = O=C([C@H](CC(F)(F)P(=O)(O)O)N[*:1])[*:2]; pS = N[C@@H](COP(=O)(O)O)C(=O)O

Columns and labels:
CzCdc14 [1] = details: DiFMUP; 0.5 nM enzyme, pH 7.5, 30 °C; mean of 3 ± SD
Description: All enzyme concentrations were 0.5 nM, except for PsCdc14 and VHR, which were assayed at 2 and 5 nM, respectively. Fluorescence intensity was measured continuously on a Synergy H1 microplate reader (BioTek) with excitation and emission wavelengths set at 358 and 450 nm, respectively. Fluorescence intensity was converted to product concentration using a 6,8-difluoro-4-methylumbelliferone standard curve. Background fluorescence was subtracted from each reaction and initial rates were calculated from the slope of the linear portion of the product concentration versus time plots. kcat and KM were calculated as described above.

MoCdc14 [2] = biological target: T1, MoCdc14 (Pyricularia oryzae, UniProt G4MRC9); details: DiFMUP; 0.5 nM enzyme, pH 7.5, 30 °C; mean of 3 ± SD
T1 sequence (G4MRC9 1-474 limits assumed): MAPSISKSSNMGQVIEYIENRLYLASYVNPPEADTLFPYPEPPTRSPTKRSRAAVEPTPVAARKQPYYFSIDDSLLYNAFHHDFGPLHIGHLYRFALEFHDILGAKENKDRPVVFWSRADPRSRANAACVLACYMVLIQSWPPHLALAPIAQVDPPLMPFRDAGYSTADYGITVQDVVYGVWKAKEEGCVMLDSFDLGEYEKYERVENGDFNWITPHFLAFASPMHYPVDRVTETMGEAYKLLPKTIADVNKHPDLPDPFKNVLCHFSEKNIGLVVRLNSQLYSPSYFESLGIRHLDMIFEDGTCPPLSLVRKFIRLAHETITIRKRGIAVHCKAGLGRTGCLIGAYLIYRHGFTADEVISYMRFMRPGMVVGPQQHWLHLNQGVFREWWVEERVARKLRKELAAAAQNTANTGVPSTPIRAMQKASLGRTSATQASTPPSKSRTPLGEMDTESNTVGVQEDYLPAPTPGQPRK

CgCdc14 [3] = biological target: T2, CgCdc14 (Colletotrichum gloeosporioides, UniProt A0A8H4CJA2); assay: Phosphopeptide steady-state kinetics (Biomol Green); assay type: biochemical; details: phosphopeptide pS, pH 7.5, 30 °C, mean of 3 ± SD
T2 sequence (A0A8H4CJA2 entry or part of it): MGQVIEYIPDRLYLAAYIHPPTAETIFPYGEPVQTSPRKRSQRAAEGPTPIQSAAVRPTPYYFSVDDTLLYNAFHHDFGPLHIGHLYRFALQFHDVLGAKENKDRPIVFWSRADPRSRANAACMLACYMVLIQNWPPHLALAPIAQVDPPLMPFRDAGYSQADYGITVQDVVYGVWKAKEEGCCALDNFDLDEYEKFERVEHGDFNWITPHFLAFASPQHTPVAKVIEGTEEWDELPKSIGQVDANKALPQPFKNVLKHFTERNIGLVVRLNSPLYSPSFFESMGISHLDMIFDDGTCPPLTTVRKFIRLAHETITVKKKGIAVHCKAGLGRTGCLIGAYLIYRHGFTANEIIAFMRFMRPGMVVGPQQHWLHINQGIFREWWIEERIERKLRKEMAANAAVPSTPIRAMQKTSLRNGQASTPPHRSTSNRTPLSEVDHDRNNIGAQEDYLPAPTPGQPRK
Description: (§1) Activities towards varying concentrations of the synthetic phosphopeptide HT(pSer)PIKSIG (Genscript Corp) were measured in 50 µL assay buffer at 30 °C essentially as described above for pNPP, except substrate consumption was limited to 10% due to limited assay sensitivity and the reaction was stopped with 100 µL Biomol Green (Enzo Life Sciences).

RsCdc14 [4] = biological target: T3, RsCdc14 (Rhizoctonia solani, UniProt L8WYM4); assay: as above; assay type: biochemical; details: phosphopeptide pS, pH 7.5, 30 °C, mean of 3 ± SD
T3 sequence (L8WYM4 2-162 limits assumed): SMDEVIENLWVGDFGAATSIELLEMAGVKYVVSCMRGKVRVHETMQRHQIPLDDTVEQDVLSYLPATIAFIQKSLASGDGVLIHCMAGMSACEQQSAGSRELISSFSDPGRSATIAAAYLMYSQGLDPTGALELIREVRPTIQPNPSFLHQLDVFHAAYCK
Description: as §1

BcCdc14 [5] = biological target: T4, BcCdc14 (Botrytis cinerea, UniProt A0A384J4N9); assay: as above; assay type: biochemical; details: phosphopeptide pS, pH 7.5, 30 °C, mean of 3 ± SD
T4 sequence (A0A384J4N9 1-492): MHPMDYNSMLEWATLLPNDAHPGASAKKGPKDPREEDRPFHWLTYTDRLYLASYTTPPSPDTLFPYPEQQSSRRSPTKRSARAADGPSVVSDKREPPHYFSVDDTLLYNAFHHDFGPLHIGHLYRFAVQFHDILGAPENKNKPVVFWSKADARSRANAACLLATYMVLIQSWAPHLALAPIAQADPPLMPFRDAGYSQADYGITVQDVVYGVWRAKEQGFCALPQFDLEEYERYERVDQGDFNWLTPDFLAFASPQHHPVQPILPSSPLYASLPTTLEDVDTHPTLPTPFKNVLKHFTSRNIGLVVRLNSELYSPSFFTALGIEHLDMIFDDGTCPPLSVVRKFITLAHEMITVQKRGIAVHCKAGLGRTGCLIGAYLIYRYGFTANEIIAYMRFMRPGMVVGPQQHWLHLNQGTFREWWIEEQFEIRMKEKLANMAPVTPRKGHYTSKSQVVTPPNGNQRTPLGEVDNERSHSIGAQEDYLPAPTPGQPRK
Description: as §1

ScCdc14 [6] = biological target: T5, ScCdc14 (Saccharomyces cerevisiae, UniProt Q00684); assay: as above; assay type: biochemical; details: phosphopeptide pS, pH 7.5, 30 °C, mean of 3 ± SD
T5 construct: made in house; host or cells: E. coli BL21 AI
T5 sequence (Q00684 1-447 limits assumed): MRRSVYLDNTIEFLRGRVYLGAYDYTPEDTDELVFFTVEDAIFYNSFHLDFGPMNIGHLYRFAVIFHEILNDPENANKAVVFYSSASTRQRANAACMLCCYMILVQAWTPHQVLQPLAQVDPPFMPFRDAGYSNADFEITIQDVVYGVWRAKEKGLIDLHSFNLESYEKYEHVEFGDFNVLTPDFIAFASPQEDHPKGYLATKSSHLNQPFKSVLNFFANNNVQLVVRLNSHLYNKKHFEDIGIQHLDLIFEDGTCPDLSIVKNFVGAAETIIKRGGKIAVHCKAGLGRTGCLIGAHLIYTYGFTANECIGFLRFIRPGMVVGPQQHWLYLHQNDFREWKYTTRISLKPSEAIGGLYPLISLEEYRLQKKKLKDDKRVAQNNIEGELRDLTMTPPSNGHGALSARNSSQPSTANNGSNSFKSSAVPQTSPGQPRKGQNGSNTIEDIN
Description: as §1

MoCdc14 [7] = biological target: T1, MoCdc14; assay type: biochemical, Magnaporthe oryzae; details: phosphopeptide pS; pH 7.5, 30 °C; Biomol Green; mean of 3 ± SD
AnCdc14 [8] = biological target: T6, AnCdc14 (Aspergillus niger, UniProt A2QDS6); assay: Phosphopeptide steady-state kinetics (Biomol Green); assay type: biochemical; details: phosphopeptide pS, pH 7.5, 30 °C, mean of 3 ± SD
T6 sequence (A2QDS6 1-476 limits assumed): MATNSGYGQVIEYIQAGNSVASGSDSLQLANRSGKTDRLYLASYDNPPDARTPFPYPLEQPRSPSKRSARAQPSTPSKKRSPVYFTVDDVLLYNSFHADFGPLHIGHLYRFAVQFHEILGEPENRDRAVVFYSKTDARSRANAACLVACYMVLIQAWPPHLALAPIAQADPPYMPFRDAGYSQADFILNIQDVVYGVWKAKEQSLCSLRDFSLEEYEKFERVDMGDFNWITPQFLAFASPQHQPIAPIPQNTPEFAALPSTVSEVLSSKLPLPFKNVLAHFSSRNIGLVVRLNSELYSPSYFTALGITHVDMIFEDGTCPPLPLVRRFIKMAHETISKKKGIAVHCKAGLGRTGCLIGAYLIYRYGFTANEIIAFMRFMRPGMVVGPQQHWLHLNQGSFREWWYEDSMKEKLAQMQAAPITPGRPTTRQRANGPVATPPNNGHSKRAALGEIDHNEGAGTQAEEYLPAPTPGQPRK

CgCdc14 [9] = biological target: T2, CgCdc14; assay: MS specificity constant assay; assay type: biochemical; details: pooled phosphopeptides 375 nM each, 1 to 1,000 nM Cdc14, pH 7.5, 30 °C; LC-MS; mean of 3 ± SD
Source text: (§2) Our primary interest was the conservation of substrate specificity. To define the specificities of the eight fungal pathogen Cdc14 homologs and compare them to the well-characterized ScCdc14, we developed a new assay that uses mass spectrometry (MS) to measure the specificity constant, kcat/KM, for a collection of synthetic phosphopeptide substrates (Fig. 3a). This assay, based on a similar assay for measuring protease specificity, is more sensitive and has a much broader linear dynamic range (Fig. 3b) than the conventional malachite green colorimetric assay used to generate the phosphopeptide data in Table 1. These advantages made it convenient for measuring Cdc14 activity towards substrates whose specificity constants can vary by several orders of magnitude. The assay also increases throughput by allowing simultaneous measurement of kcat/KM for many different substrates. The peptides were based on the Yen1 Ser583 sequence with variations designed to test the importance of the four known ScCdc14 substrate recognition features (phosphoamino acid identity, + 1 Pro, + 3 Lys/Arg, Lys/Arg near + 3). Measurements were made by integrating MS chromatogram peak areas for the phosphorylated and dephosphorylated peptide species after Cdc14 treatment and using those values to calculate the fraction of substrate consumed (Fig. 3c; see “Methods” for details). […] Results from this assay were in reasonably good agreement with conventional steady-state kinetic measurements of kcat and KM using a malachite green spectroscopic assay (compare substrate pS in Tables 1 and 2), although the MS assay consistently yielded kcat/KM ~ three to fivefold higher, likely due to sensitivity limitations of the malachite green assay with high affinity substrates.
(§3) kcat/KM measurements can be made on pooled substrate mixtures for characterizing enzymatic specificity, provided substrate concentrations are far below KM[38]. Mass spectrometry is a useful tool for monitoring reaction progress in such mixtures, as long as each substrate and product has a unique mass. […]

BcCdc14 [10] = biological target: T4, BcCdc14; assay: MS specificity constant assay; assay type: biochemical; details: pooled phosphopeptides 375 nM each, 1 to 1,000 nM Cdc14, pH 7.5, 30 °C; LC-MS; mean of 3 ± SD
Source text: as §2, §3

ScCdc14 [11] = biological target: T5, ScCdc14; assay: MS specificity constant assay; assay type: biochemical; details: pooled phosphopeptides 375 nM each, 1 to 1,000 nM Cdc14, pH 7.5, 30 °C; LC-MS; mean of 3 ± SD
Source text: as §2, §3

RsCdc14 [12] = biological target: T3, RsCdc14; assay: MS specificity constant assay; assay type: biochemical; details: pooled phosphopeptides 375 nM each, 1 to 1,000 nM Cdc14, pH 7.5, 30 °C; LC-MS; mean of 3 ± SD
UmCdc14 = assay: MS specificity constant assay; assay type: biochemical, Ustilago maydis; details: pooled phosphopeptides 375 nM each, 1 to 1,000 nM Cdc14, pH 7.5, 30 °C; LC-MS; mean of 3 ± SD
Source text: (§4) Our primary interest was the conservation of substrate specificity. To define the specificities of the eight fungal pathogen Cdc14 homologs and compare them to the well-characterized ScCdc14, we developed a new assay that uses mass spectrometry (MS) to measure the specificity constant, kcat/KM, for a collection of synthetic phosphopeptide substrates (Fig. 3a). This assay, based on a similar assay for measuring protease specificity, is more sensitive and has a much broader linear dynamic range (Fig. 3b) than the conventional malachite green colorimetric assay used to generate the phosphopeptide data in Table 1. These advantages made it convenient for measuring Cdc14 activity towards substrates whose specificity constants can vary by several orders of magnitude. The assay also increases throughput by allowing simultaneous measurement of kcat/KM for many different substrates. The peptides were based on the Yen1 Ser583 sequence with variations designed to test the importance of the four known ScCdc14 substrate recognition features (phosphoamino acid identity, + 1 Pro, + 3 Lys/Arg, Lys/Arg near + 3). Measurements were made by integrating MS chromatogram peak areas for the phosphorylated and dephosphorylated peptide species after Cdc14 treatment and using those values to calculate the fraction of substrate consumed (Fig. 3c; see “Methods” for details). […]

AnCdc14 [13] = biological target: T6, AnCdc14; assay: MS specificity constant assay; assay type: biochemical; details: pooled phosphopeptides 375 nM each, 1 to 1,000 nM Cdc14, pH 7.5, 30 °C; LC-MS; mean of 3 ± SD
CzCdc14 [14] = assay: MS specificity constant assay; assay type: biochemical, Cercospora zeina; details: pooled phosphopeptides 375 nM each, 1 to 1,000 nM Cdc14, pH 7.5, 30 °C; LC-MS; mean of 3 ± SD
Source text: as §4

MoCdc14 [15] = biological target: T1, MoCdc14; assay type: biochemical, Magnaporthe oryzae; details: pooled phosphopeptides 375 nM each, 1 to 1,000 nM Cdc14, pH 7.5, 30 °C; LC-MS; mean of 3 ± SD
CzCdc14 [16] = assay: Phosphopeptide steady-state kinetics (Biomol Green); assay type: biochemical, Cercospora zeina; details: phosphopeptide pS, pH 7.5, 30 °C, mean of 3 ± SD
Description: as §1

all Cdc14 homologs = assay: MS specificity constant assay, all homologs compared; assay type: biochemical
Source text: as §4

MoCdc14 [17] = biological target: T1, MoCdc14; details: pNPP; 25 mM HEPES pH 7.5, 30 °C; mean of 3 ± SD
CzCdc14 [18] = assay type: biochemical, Cercospora zeina; details: pNPP; 25 mM HEPES pH 7.5, 30 °C; mean of 3 ± SD
Description: Activities towards varying concentrations of para-nitrophenyl phosphate (pNPP) were measured in 100 µL assay buffer (25 mM HEPES pH 7.5, 2 mM TCEP, 1 mM EDTA, and 150 mM NaCl) at 30 °C. Enzyme concentrations were chosen to achieve absorbance values within the linear response range while satisfying the steady-state assumption where substrate consumption was < 1%. Reactions were initiated by enzyme addition and stopped with 1 N NaOH. Absorbance at 405 nm was measured on a Synergy H1 microplate reader (BioTek) and converted to product concentration using a para-nitrophenol standard curve. Initial rates were plotted as a function of substrate concentration and fit with the Michealis-Menten equation in GraphPad Prism (Version 8) to determine kcat and KM.

ScCdc14 [19] = biological target: T5, ScCdc14; assay: Enzyme inhibition, DiFMUP assay; assay type: biochemical
Source text: Measured initial rates were converted to percent activity relative to a reaction lacking pCF2Ser peptide. […] Ki is related to IC50 by the equation Ki = IC50/([S]/KM + 1). Since [S] was equal to KM in our assays, Ki = IC50/2.

MoCdc14 [20] = biological target: T1, MoCdc14; assay: biochemical; parameters: species or system Magnaporthe oryzae

Cc1cc(=O)oc2c(F)c(OP(=O)(O)O)c(F)cc12 [DiFMUP]
Km (CzCdc14 [1]): 66 ± 11 µM | kcat (CzCdc14 [1]): 31 ± 2 s⁻¹ | kcat/KM (CzCdc14 [1]): 477,000 ± 10,600 M^−1 s^−1 | kcat (MoCdc14 [2]): 3 ± 0.5 s⁻¹ | kcat/KM (MoCdc14 [2]): 68,000 ± 6,100 M^−1 s^−1

HT[pS]PIKSIG
Km (CgCdc14 [3]): 351 ± 21 µM | kcat (CgCdc14 [3]): 2.2 ± 0.1 s⁻¹ | kcat/KM (CgCdc14 [3]): 6,200 ± 200 M^−1 s^−1 | Km (RsCdc14 [4]): 178 ± 52 µM | kcat (RsCdc14 [4]): 0.52 ± 0.07 s⁻¹ | kcat/KM (RsCdc14 [4]): 3,000 ± 600 M^−1 s^−1 | Km (BcCdc14 [5]): 297 ± 38 µM | kcat/KM (BcCdc14 [5]): 3,400 ± 300 M^−1 s^−1 | kcat (ScCdc14 [6]; 640 nm): 1.4 ± 0.1 s⁻¹ | Km (ScCdc14 [6]): 173 ± 21 µM | kcat/KM (ScCdc14 [6]): 7,800 ± 300 M^−1 s^−1 | Km (MoCdc14 [7]): 63 ± 19 µM | kcat (MoCdc14 [7]): 0.4 ± 0.02 s⁻¹ | kcat/KM (MoCdc14 [7]): 6,200 ± 1,700 M^−1 s^−1 | Km (AnCdc14 [8]): 194 ± 44 µM | kcat (AnCdc14 [8]): 1.0 ± 0.1 s⁻¹ | kcat/KM (AnCdc14 [8]): 5,100 ± 800 M^−1 s^−1 | specificity constant kcat/KM (CgCdc14 [9]): 19,400 ± 1,800 M^−1 s^−1 | specificity constant kcat/KM (BcCdc14 [10]): 15,700 ± 1,200 M^−1 s^−1 | specificity constant kcat/KM (ScCdc14 [11]): 21,100 ± 1,400 M^−1 s^−1 | specificity constant kcat/KM (RsCdc14 [12]): 17,300 ± 1,500 M^−1 s^−1 | specificity constant kcat/KM (UmCdc14): 12,900 ± 3,300 M^−1 s^−1 | specificity constant kcat/KM (AnCdc14 [13]): 25,200 ± 2,200 M^−1 s^−1 | specificity constant kcat/KM (CzCdc14 [14]): 110,800 ± 10,600 M^−1 s^−1 | specificity constant kcat/KM (MoCdc14 [15]): 17,000 ± 2,500 M^−1 s^−1 | Km (CzCdc14 [16]): 62 ± 14 µM | kcat (CzCdc14 [16]): 2.1 ± 0.1 s⁻¹ | kcat/KM (CzCdc14 [16]): 34,000 ± 8,000 M^−1 s^−1 | kcat/KM of pSer-containing peptide higher than pThr-containing peptide (all Cdc14 homologs): > 1,000 fold | kcat/KM of pSer-containing peptide higher than pTyr-containing peptide (all Cdc14 homologs): > 100 fold

O=[N+]([O-])c1ccc(OP(=O)(O)O)cc1 [pNPP, para-nitrophenyl phosphate]
kcat (MoCdc14 [17]): 1.02 ± 0.03 s⁻¹ | kcat/KM (MoCdc14 [17]): 40 ± 2 M⁻¹ s⁻¹ | Km (CzCdc14 [18]): 25000 ± 2000 µM | kcat (CzCdc14 [18]): 2.8 ± 0.1 s⁻¹ | kcat/KM (CzCdc14 [18]): 115 ± 6 M⁻¹ s⁻¹

CC(C)[C@H](NC(=O)[C@@H](N)CCC(=O)O)C(=O)N[C@@H](CC(F)(F)P(=O)(O)O)C(=O)N1CCC[C@H]1C(=O)N[C@H](C(=O)N[C@@H](CCCCN)C(=O)N[C@@H](CCCNC(=N)N)C(N)=O)[C@@H](C)O [pCF2Ser peptide, Glu-Val-pCF2Ser-Pro-Thr-Lys-Arg-amide] (H-EV[X1]PTKR-NH2)
Ki (ScCdc14 [19]): 3.2 ± 1 µM | Ki (MoCdc14 [20]): 3.4 ± 1.2 µM
